In patent US9550796B2, “Pyrrolopyrrolone derivatives and their use as BET inhibitors” (NOVARTIS AG, priority 2013, dated 2017):

How the values were obtained:
BRD4 = BRD4 (Homo sapiens (Human), UniProt O60885); experiment: TR-FRET in-vitro binding assay for BRD4; settings: 45 nM His-Brd4(44-477), acetyl-histone H4 (AcK 5, 8, 12, 16) peptide
How it was run: (§1)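 Binding is detected by TR-FRET following incubation for 35 minutes at 30° C.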

BRD2 = BRD2 (Homo sapiens (Human), UniProt P25440); experiment: TR-FRET in-vitro binding assay for BRD2; settings: 45 nM His-Brd2(60-472), acetyl-histone H4 (AcK 5, 8, 12, 16) peptide
Chain of BRD2 (P25440 60-472): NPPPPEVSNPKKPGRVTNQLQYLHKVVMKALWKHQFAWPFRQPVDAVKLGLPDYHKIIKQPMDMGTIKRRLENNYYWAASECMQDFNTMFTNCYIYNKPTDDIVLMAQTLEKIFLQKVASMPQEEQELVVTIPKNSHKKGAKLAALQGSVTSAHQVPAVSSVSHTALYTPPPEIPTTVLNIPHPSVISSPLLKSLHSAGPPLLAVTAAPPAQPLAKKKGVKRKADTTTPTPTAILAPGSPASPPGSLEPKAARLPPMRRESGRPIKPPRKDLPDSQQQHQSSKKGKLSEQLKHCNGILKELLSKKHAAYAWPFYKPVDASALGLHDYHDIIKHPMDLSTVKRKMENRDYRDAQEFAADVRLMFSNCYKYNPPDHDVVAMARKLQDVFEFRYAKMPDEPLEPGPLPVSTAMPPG
Procedure: TR-FRET In-Vitro Binding Assays for BRD2, BRD3, and BRD4: All assays were performed in 384-well microtiter plates. […] Liquid handling and incubation steps were done on an Innovadyne Nanodrop Express equipped with a robotic arm (Thermo CatX, Perkin Elmer/Caliper Twister II) and an incubator (Liconic STX40, Thermo Cytomat 2C450). The assay plates were prepared by addition of 50 nl per well of compound solution in 90% DMSO HummingBird nanodispenser (Zinsser Analytic). […] Reactions were incubated at 30° C. for 35 minutes. […] After 35 minutes incubation at 30° C., plates were measured in a Perkin Elmer EnVision multilabel reader. […] The stock solutions were stored at […] if not used immediately. For the test procedure the vials were defrosted and identified by a scanner whereby a working sheet was generated that guided the subsequent working steps. Compound dilutions were made in 96 well plates. This format enabled the assay of maximally […] at 8 concentrations (single points) including 4 reference compounds, if desired (known BET inhibitors from the prior art, for this and other assays of the type disclosed herein). The dilution protocol included the production of “pre-dilution plates”, “master plates” and “assay plates”. Polypropylene 96-well plates were used as pre-dilution plates. […] All dilution steps were done on a HamiltonSTAR robot. […] Identical “assay plates” were then prepared by pipetting 50 nL each of compound dilutions of the “master plates” into 384-well “assay plates” by means of a HummingBird 384-channel dispenser. These plates were used directly for the assay which was performed in a total volume of 13.55 μL.

BRD3 = BRD3 (Homo sapiens (Human), UniProt Q15059); experiment: TR-FRET in-vitro binding assay for BRD3; settings: 45 nM His-Brd3(20-477), acetyl-histone H4 (AcK 5, 8, 12, 16) peptide
Chain of BRD3 (Q15059 20-477): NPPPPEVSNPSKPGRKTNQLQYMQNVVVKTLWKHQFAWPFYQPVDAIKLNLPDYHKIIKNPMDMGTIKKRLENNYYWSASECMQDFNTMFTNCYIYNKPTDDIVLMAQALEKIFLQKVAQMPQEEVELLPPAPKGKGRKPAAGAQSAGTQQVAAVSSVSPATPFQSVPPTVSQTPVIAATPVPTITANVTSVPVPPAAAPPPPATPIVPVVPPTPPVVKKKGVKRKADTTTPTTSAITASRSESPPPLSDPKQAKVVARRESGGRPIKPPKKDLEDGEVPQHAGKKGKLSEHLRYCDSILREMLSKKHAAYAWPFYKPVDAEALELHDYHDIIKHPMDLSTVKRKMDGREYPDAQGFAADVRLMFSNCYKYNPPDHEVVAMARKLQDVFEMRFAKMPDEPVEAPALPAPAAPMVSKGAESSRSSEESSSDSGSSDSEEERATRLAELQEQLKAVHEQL
How it was run: as §1

CREBBP = CREBBP (Homo sapiens (Human), UniProt Q92793); experiment: AlphaScreen in-vitro binding assay for CREBBP; settings: 324 nM His-CREBBP (1081-1197), acetyl-histone H4 (AcK 5, 8, 12) peptide
Chain of CREBBP (Q92793 1081-1197): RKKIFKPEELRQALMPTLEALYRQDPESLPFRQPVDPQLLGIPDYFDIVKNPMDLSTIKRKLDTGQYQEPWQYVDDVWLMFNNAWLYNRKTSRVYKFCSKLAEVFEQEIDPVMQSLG
How it was run: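 IC50 values were derived by non-linear regression of percent inhibition across 8 compound concentrations. Protein was His-tagged CREBBP bromodomain (1081-1197), peptide acetyl-histone H4 (AcK 5, 8, 12), in HEPES pH 7.5 buffer. Read-out was AlphaScreen with Ni-chelate acceptor and streptavidin donor beads, 35 min at 30° C then 60 min at RT.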

MV-4-11 = experiment: Cell growth inhibition assay (CellTiter-Glo), MV-4-11; type: cell-based, human; settings: MV-4-11 cells, 4 days; for GI50: Homo sapiens, MV4-11, 96 h, half-maximal growth inhibition; for MV-4-11 TGI: total growth inhibition
How it was run: (§2)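 ATP content was quantified with CellTiter-Glo after 4-day compound treatment (top 10 μM, 3-fold steps) at 37 °C. Readings were background- and day-0-corrected, scaled so vehicle equals 100% and medium equals −100%. Four-parameter fits gave half-maximal (IC50) and total growth inhibition concentrations.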

THP-1 = experiment: Cell growth inhibition assay (CellTiter-Glo), THP-1; type: cell-based, human; settings: THP-1 cells, 4 days; for GI50: Homo sapiens, 96 h, half-maximal growth inhibition; for THP-1 TGI: total growth inhibition
How it was run: as §2

K-562 = experiment: Cell growth inhibition assay (CellTiter-Glo), K-562; type: cell-based, human; settings: K-562 cells, 4 days; for GI50: Homo sapiens, K562, 96 h, half-maximal growth inhibition; for K-562 TGI: total growth inhibition
How it was run: as §2

## Cc1cn(C2COC2)c2c1C(=O)N(c1cc(C)c3nnc(C)n3c1)C2c1ccc(Cl)cc1 (stereo not drawn) [Example 6, 6-(4-chlorophenyl)-5-(3,8-dimethyl-[1,2,4]triazolo[4,3-a]pyridin-6-yl)-3-methyl-1-(oxetan-3-yl)-5,6-dihydropyrrolo[3,4-b]pyrrol-4(1H)-one]
BRD4
  IC50: 17 nM
BRD2
  IC50: 40 nM
BRD3
  IC50: 23 nM
CREBBP
  IC50: 6000 nM
MV-4-11
  GI50: 6.74 nM
  MV-4-11 TGI: 21.4 nM
THP-1
  GI50: 10.6 nM
  THP-1 TGI: 29.25 nM
K-562
  GI50: 50.5 nM
  K-562 TGI: >10000 nM

## CC(=O)N1CC(n2cc(C)c3c2C(c2ccc(Cl)cc2)N(c2cc(C)c4nnc(C)n4c2)C3=O)C1 (stereo not drawn) [Example 7, 1-(1-acetylazetidin-3-yl)-6-(4-chlorophenyl)-5-(3,8-dimethyl-[1,2,4]triazolo[4,3-a]pyridin-6-yl)-3-methyl-5,6-dihydropyrrolo[3,4-b]pyrrol-4(1H)-one]
BRD4
  IC50: 17 nM
BRD2
  IC50: 32 nM
BRD3
  IC50: 16 nM
CREBBP
  IC50: 7600 nM
MV-4-11
  GI50: 50.2 nM
  MV-4-11 TGI: 135.8 nM
THP-1
  GI50: 196 nM
  THP-1 TGI: 449.5 nM
K-562
  GI50: 2060 nM
  K-562 TGI: >10000 nM

## CCOC(=O)N1CC(n2cc(C)c3c2C(c2ccc(Cl)cc2)N(c2cc(C)c4nnc(C)n4c2)C3=O)C1 (stereo not drawn) [Example 8, Ethyl 3-(6-(4-chlorophenyl)-5-(3,8-dimethyl-[1,2,4]triazolo[4,3-a]pyridin-6-yl)-3-methyl-4-oxo-5,6-dihydropyrrolo[3,4-b]pyrrol-1(4H)-yl)azetidine-1-carboxylate]
BRD4
  IC50: 18 nM
BRD2
  IC50: 41 nM
BRD3
  IC50: 34 nM
CREBBP
  IC50: 5100 nM
MV-4-11
  GI50: 25.2 nM
  MV-4-11 TGI: 37.75 nM
THP-1
  GI50: 41.6 nM
  THP-1 TGI: 93.95 nM
K-562
  GI50: 132 nM
  K-562 TGI: >10000 nM

## CNC(=O)n1cc(C)c2c1C(c1ccc(Cl)cc1)N(c1cc(C)c3nnc(C)n3c1)C2=O (stereo not drawn) [Example 9, 6-(4-chlorophenyl)-5-(3,8-dimethyl-[1,2,4]triazolo[4,3-a]pyridin-6-yl)-N,3-dimethyl-4-oxo-5,6-dihydropyrrolo[3,4-b]pyrrole-1(4H)-carboxamide]
BRD4
  IC50: 24 nM
BRD2
  IC50: 28 nM
BRD3
  IC50: 15 nM
CREBBP
  IC50: 6000 nM
MV-4-11
  GI50: 13 nM
  MV-4-11 TGI: 26.75 nM
THP-1
  GI50: 17.1 nM
  THP-1 TGI: 43.3 nM
K-562
  GI50: 78.7 nM
  K-562 TGI: >10000 nM

## Cc1cn(C(=O)N(C)C)c2c1C(=O)N(c1cc(C)c3nnc(C)n3c1)C2c1ccc(Cl)cc1 (stereo not drawn) [Example 10, 6-(4-chlorophenyl)-5-(3,8-dimethyl-[1,2,4]triazolo[4,3-a]pyridin-6-yl)-N,N,3-trimethyl-4-oxo-5,6-dihydropyrrolo[3,4-b]pyrrole-1(4H)-carboxamide]
BRD4
  IC50: 33 nM
BRD2
  IC50: 55 nM
BRD3
  IC50: 34 nM
CREBBP
  IC50: 14500 nM
MV-4-11
  GI50: 19.4 nM
  MV-4-11 TGI: 36.25 nM
THP-1
  GI50: 29.8 nM
  THP-1 TGI: 69.85 nM
K-562
  GI50: 102 nM
  K-562 TGI: >10000 nM

## CCOC(=O)n1cc(C)c2c1C(c1ccc(Cl)cc1)N(c1cc(C)c3nnc(C)n3c1)C2=O (stereo not drawn) [Example 11, Ethyl 6-(4-chlorophenyl)-5-(3,8-dimethyl-[1,2,4]triazolo[4,3-a]pyridin-6-yl)-3-methyl-4-oxo-5,6-dihydropyrrolo[3,4-b]pyrrole-1(4H)-carboxylate]
BRD4
  IC50: 38 nM
BRD2
  IC50: 39 nM
BRD3
  IC50: 50 nM
CREBBP
  IC50: 7300 nM
MV-4-11
  GI50: 18.7 nM
  MV-4-11 TGI: 31.55 nM
THP-1
  GI50: 26 nM
  THP-1 TGI: 58.95 nM
K-562
  GI50: 113 nM
  K-562 TGI: >10000 nM

## COCC(=O)N1CC(n2cc(C)c3c2C(c2ccc(Cl)cc2)N(c2cc(C)c4nnc(C)n4c2)C3=O)C1 (stereo not drawn) [Example 12, 6-(4-chlorophenyl)-5-(3,8-dimethyl-[1,2,4]triazolo[4,3-a]pyridin-6-yl)-1-(1-(2-methoxyacetyl)azetidin-3-yl)-3-methyl-5,6-dihydropyrrolo[3,4-b]pyrrol-4(1H)-one]
BRD4
  IC50: 54 nM
BRD2
  IC50: 80 nM
BRD3
  IC50: 52 nM
CREBBP
  IC50: 23900 nM
MV-4-11
  GI50: 74.8 nM
  MV-4-11 TGI: 149 nM
THP-1
  GI50: 219 nM
  THP-1 TGI: 618.5 nM
K-562
  GI50: 1050 nM
  K-562 TGI: >10000 nM

## COCCn1cc(C)c2c1C(c1ccc(Cl)cc1)N(c1cc(C)c3nnc(C)n3c1)C2=O (stereo not drawn) [Example 13, 6-(4-chlorophenyl)-5-(3,8-dimethyl-[1,2,4]triazolo[4,3-a]pyridin-6-yl)-1-(2-methoxyethyl)-3-methyl-5,6-dihydropyrrolo[3,4-b]pyrrol-4(1H)-one]
BRD4
  IC50: 62 nM
BRD2
  IC50: 71 nM
BRD3
  IC50: 67 nM
CREBBP
  IC50: 13700 nM
MV-4-11
  GI50: 12.7 nM
  MV-4-11 TGI: 24.85 nM
THP-1
  GI50: 17.6 nM
  THP-1 TGI: 38.9 nM
K-562
  GI50: 73.6 nM
  K-562 TGI: >10000 nM

## Cc1cn(CCO)c2c1C(=O)N(c1cc(C)c3nnc(C)n3c1)C2c1ccc(Cl)cc1 (stereo not drawn) [Example 14, 6-(4-chlorophenyl)-5-(3,8-dimethyl-[1,2,4]triazolo[4,3-a]pyridin-6-yl)-1-(2-hydroxyethyl)-3-methyl-5,6-dihydropyrrolo[3,4-b]pyrrol-4(1H)-one]
BRD4
  IC50: 22 nM
BRD2
  IC50: 23 nM
BRD3
  IC50: 25 nM
CREBBP
  IC50: 6600 nM
MV-4-11
  GI50: 14.6 nM
  MV-4-11 TGI: 30.85 nM
THP-1
  GI50: 35.6 nM
  THP-1 TGI: 81.55 nM
K-562
  GI50: 115 nM
  K-562 TGI: >10000 nM

## Cc1cc(N2C(=O)c3c(C4CC4)cn(C4CN(C)C4)c3C2c2ccc(Cl)cc2)cn2c(C)nnc12 (stereo not drawn) [Example 16, 6-(4-chlorophenyl)-3-cyclopropyl-5-(3,8-dimethyl-[1,2,4]triazolo[4,3-a]pyridin-6-yl)-1-(1-methylazetidin-3-yl)-5,6-dihydropyrrolo[3,4-b]pyrrol-4(1H)-one]
BRD4
  IC50: 14 nM
BRD2
  IC50: 14 nM
BRD3
  IC50: 19 nM
CREBBP
  IC50: 5000 nM
MV-4-11
  GI50: 3.81 nM
  MV-4-11 TGI: 12.4 nM
THP-1
  GI50: 11.7 nM
  THP-1 TGI: 35.5 nM
K-562
  GI50: 45.2 nM
  K-562 TGI: >10000 nM

## CC(=O)N1CC(n2cc(C3CC3)c3c2C(c2ccc(Cl)cc2)N(c2cc(C)c4nnc(C)n4c2)C3=O)C1 (stereo not drawn) [Example 17, 1-(1-acetylazetidin-3-yl)-6-(4-chlorophenyl)-3-cyclopropyl-5-(3,8-dimethyl-[1,2,4]triazolo[4,3-a]pyridin-6-yl)-5,6-dihydropyrrolo[3,4-b]pyrrol-4(1H)-one]
BRD4
  IC50: < 11 nM
BRD2
  IC50: < 11 nM
BRD3
  IC50: < 11 nM
CREBBP
  IC50: 4100 nM
MV-4-11
  GI50: 11.1 nM
  MV-4-11 TGI: 34.85 nM
THP-1
  GI50: 43.3 nM
  THP-1 TGI: 168 nM
K-562
  GI50: 230 nM
  K-562 TGI: >10000 nM

## Cc1cn(C2CN(C)C2)c2c1C(=O)N(c1cc(C)c3nnn(C)c3n1)C2c1ccc(Cl)cc1 (stereo not drawn) [Example 20, 6-(4-chlorophenyl)-5-(3,7-dimethyl-3H-[1,2,3]triazolo[4,5-b]pyridin-5-yl)-3-methyl-1-(1-methylazetidin-3-yl)-5,6-dihydropyrrolo[3,4-b]pyrrol-4(1H)-one]
BRD4
  IC50: 16 nM
BRD2
  IC50: 23 nM
BRD3
  IC50: 20 nM
CREBBP
  IC50: > 37000 nM
MV-4-11
  GI50: 7.89 nM
  MV-4-11 TGI: 21.25 nM
THP-1
  GI50: 12.9 nM
  THP-1 TGI: 38 nM
K-562
  GI50: 63.4 nM
  K-562 TGI: >10000 nM
